Laboratory results taken from patent publication US8206955B2, “Production of monatin and monatin precursors” (Cargill, Incorporated, priority 2003, dated 2012).

Key:
C. testosteroni = test: plate assay using monatin as the main carbon and energy source; type: cell-based
Procedure: (§1) Organisms that can synthesize monatin can be detected by screening for growth on plates in which monatin (or the monatin precursor (MP)) is the main carbon and energy source. Screening by this method requires (1) that the synthetic pathway be reversible, allowing the product, monatin, to be metabolized by this route and (2) that the organism has a transport system that is able to import monatin or MP. S. meliloti, P. straminea, and C. testosteroni were tested for their ability to grow on minimal medium plates which contained monatin as the primary carbon and energy source.
(§2) Plates containing M9 minimal medium or Rhizobium minimal medium were prepared with 0.01% casamino acids and 0.1-0.2% carbon source (glucose or purified monatin). Negative control plates contained casamino acids but no additional carbon source. S. meliloti, P. straminea, and C. testosteroni were grown in rich media to OD 2.1-2.7 and diluted 1000-fold with sterile 1× phosphate-buffered saline (PBS). A volume of 1-10 μL was used for plating. The plates were incubated at 26° C. for several days. […] The experiments were repeated and C. testosteroni was grown in both NB as well as PHB media prior to induction. Again using M9 media for plating, the S. meliloti appeared to grow better with monatin as the carbon source than the other organisms. […] In addition, at the higher dilution (10^−6), the use of PHB-grown inoculum increased the number and size of colonies obtained compared to the NB-grown inoculum.

S. meliloti = test: as above; type: cell-based; conditions: M9 medium + monatin (0.1-0.2%), 26° C.
Procedure: as §1, §2

stability of MP = type: physicochemical
Text: Any effect of additional tryptophan and pyruvate was not detectable, except in the case of Comamonas, where a benefit was noted. […] It is not known whether tryptophan and pyruvate are efficiently taken up in these wildtype organisms, or what changes in gene expression occur as a result of adding large concentrations of these substrates to the medium. While the parahydroxybenzoate substrate is only known to induce the aldolase in Comamonas, it appears to have improved the level of monatin produced in S. meliloti as well.

[1] = aldolase activity assay, indole-3-pyruvate and pyruvate to MP; type: biochemical
Procedure: The proteins were assayed for activity using indole-3-pyruvate and sodium pyruvate as substrates. The assay mixture contained 100 mM Tris-HCl (pH 7-pH 8.9), 0-8 mM MgCl2, 3 mM potassium phosphate (pH 8), and 6 mM of each substrate in 1 mL. The reaction was started by adding varying amounts of polypeptide (for example from 10 to 100 μg), and was incubated at 25° C.-37° C. for 30 minutes, filtered, and then frozen at −80° C.
There is no evidence that magnesium and phosphate are required for activity for this enzyme. However, the literature reports performing the assays in sodium phosphate buffer, and the enzyme reportedly is bifunctional and has activity on phosphorylated substrates such as 2-keto-3-deoxy-6-phosphogluconate (KDPG). The enzymatic assays were performed as described above, and in some instances the phosphate was omitted. […] In some cases the level of MP produced by KHG was almost identical to the amount produced by magnesium and phosphate alone. […] The Bacillus enzyme had the highest activity, approximately 20-25% higher activity than the magnesium and phosphate alone, as determined by LC/MS/MS (see Example 6). […] All three enzymes have the active site glutamate (position 43 in B. subtilis numbering system) as well as the lysine required for Shiff base formation with pyruvate (position 130); however, the B. subtilis enzyme contains a threonine in position 47, an active site residue, rather than arginine. The B. subtilis KHG is smaller and appears to be in a cluster distinct from the S. meliloti and E. coli enzymes, with other enzymes having the active site threonine. The differences in the active site may be the reason for the increased activity of the B. subtilis enzyme.

[2] = test system: C. testosteroni ProA aldolase and L-aspartate aminotransferase (AspC); test: production of monatin utilizing alternative C3-carbon sources; type: biochemical
Procedure: The reaction mixture consisted of 50 mM Tris-Cl pH 8.3, 2 mM MgCl2, 200 mM C3 carbon source, 5 mM alpha-ketoglutarate, sodium salt, 0.05 mM pyridoxal phosphate, deaerated water to achieve a final volume of 0.5 mL after the addition of the enzymes, 3 mM potassium phosphate pH 7.5, 25 μg of crude recombinant C. testosteroni ProA aldolase as prepared in Example 2, 500 μg of crude L-aspartate aminotransferase (AspC) as prepared in Example 1, and solid tryptophan to afford a concentration of >60 mM (saturated; some undissolved throughout the reaction). The reaction mix was incubated at 30° C. for 30 minutes with mixing. Serine, alanine, and aspartate were supplied as 3-carbon sources. Assays were performed with and without secondary PLP enzymes (purified) capable of performing beta-elimination and beta-lyase reactions (tryptophanase (TNA), double mutant tryptophanase, β-tyrosinase (TPL)).

E. coli BL21(DE3) = test: effect of Tweens on growth of E. coli in shake flasks; conditions: for effect on growth rate: 0.2% Tween in the presence of 10 μg/mL ampicillin, followed over 48 h
Procedure: The affect of several detergent Tweens on the growth rate of E. coli BL21(DE3) was studied in shake flask experiments. Either Tween-20, -40, 60, or -80 was added at 0.2% in the presence of 10 μg/mL ampicillin and the growth was followed over 48 h.

[3] = 200 mM C3 carbon source, additional PLP enzyme: None
[4] = additional PLP enzyme: 11 μg wildtype TNA (1 U)
[5] = additional PLP enzyme: 80 μg double mutant TNA

Molecule: NC(CC(O)(Cc1c[nH]c2ccccc12)C(=O)O)C(=O)O (racemic) [monatin, 2-hydroxy-2-(indol-3-ylmethyl)-4-aminoglutaric acid]
- growth with monatin as carbon source (C. testosteroni; M9 media + monatin): exhibited some growth
- growth with monatin as carbon source (C. testosteroni; Rhizobium minimal medium): grew better with monatin as the carbon and energy source than it did with glucose
- growth with monatin as carbon source (S. meliloti): exhibited better growth than the other strains tested

Molecule: O=C(O)C(=O)CC(O)(Cc1c[nH]c2ccccc12)C(=O)O (centres unmarked) [MP, 2-hydroxy 2-(indole-3-ylmethyl)-4-keto glutaric acid]
- stability (stability of MP; aqueous solution): unstable in an aqueous solution
- stability (stability of MP; fermentation broth and cell extracts): not stable in this particular matrix

Molecule: Cc1ncc(COP(=O)(O)O)c(C=O)c1O [PLP, pyridoxal 5′-phosphate, reference compound]
- formation of MP from indole-3-pyruvate and pyruvate (in words) [1]: did not appear to detectably convert indole-3-pyruvate to MP

Molecule: C[C@H](N)C(=O)O [alanine]
- Relative Activity [2, 3]: 32%
- Relative Activity [2, 4]: 41.7%
- Relative Activity [2, 5]: 43.9%

Molecule: N[C@@H](CO)C(=O)O [serine]
- Relative Activity [2, 3]: 3%
- Relative Activity [2, 4]: 5.1%
- Relative Activity [2, 5]: 4.6%

Molecule: C. testosteroni aldolase: 4-hydroxy-4-methyl-2-oxoglutarate pyruvate lyase (ProA aldolase) from Comamonas testosteroni (SEQ ID NO: 66)
- amount of MP produced ([1]; standard assay using 20 μg of purified protein, based on tryptophan standards): 10-40 μg per one mL reaction

Molecule: Tween 40
- inhibition to growth (E. coli BL21(DE3); 0.2% Tween): least inhibition to growth
- effect on growth rate (E. coli BL21(DE3)): affected the growth rate the least

Molecule: Tween-60
- effect on growth rate (E. coli BL21(DE3)): intermediate in affect

Molecule: Tween-80
- effect on growth rate (E. coli BL21(DE3)): intermediate in affect

Molecule: polyoxyethylene 20-Sorbitan monolaurate [Tween 20]
- final OD600 relative to cultures grown in the presence of Tween 40 (E. coli BL21(DE3); 0.2% Tween): slightly over half
- effect on growth rate (E. coli BL21(DE3)): about half

Molecule: tryptophanase
- formation of MP from indole-3-pyruvate and pyruvate (in words) [1]: did not appear to detectably convert indole-3-pyruvate to MP
